Experimental data from ChEMBL document CHEMBL2150899, “Compound instability in dimethyl sulphoxide, case studies with 5-aminopyrimidines and the implications for compound storage and screening” (Bioorg Med Chem Lett, 2012).

Assays:
Type in all cases: physicochemical
[1] = Drug degradation in DMSO assessed as bis-alloxazine and pyrimido[4,5-g]pteridine-2,4,7,9(1H,3H,6H,8H)-tetraone formation
[2] = Drug degradation in DMSO
[3] = Drug degradation in DMSO assessed as pyrimido[5,4-g]pteridine-4,6(3H,7H)-dione formation after 2 months; conditions: 1461 h
[4] = Drug degradation in DMSO by NMR spectrophotometry
[5] = Drug degradation in DMSO by UV-Vis spectrophotometry
[6] = Drug degradation in DMSO assessed as oxidation
[7] = Drug degradation in DMSO assessed as methoxy group hydrolysis by NMR spectrophotometry
[8] = Drug degradation in DMSO assessed as pyrimido[4,5-g]pteridine-2,4,7,9-tetraamine formation by UV-Vis spectrophotometry
[9] = Drug degradation in DMSO assessed as oxidation after overnight incubation
[10] = Drug degradation in DMSO assessed as pyrimido[5,4-g]pteridine-2,4,6,8-tetraamine formation by UV-Vis spectrophotometry
[11] = Drug degradation in DMSO assessed as murexide by UV-Vis spectrophotometry
[12] = Drug degradation in DMSO assessed as 5-aminobarbiturate formation by UV-Vis spectrophotometry
[13] = Drug degradation in DMSO assessed as ammonium cation formation by NMR spectroscopy
[14] = Drug degradation in DMSO after 2 months by UV-Vis spectrophotometry; conditions: 1461 h
[15] = Drug degradation in DMSO assessed as oxidation after two months; conditions: 1461 h
[16] = Drug degradation in DMSO assessed as 2,6-diamino-5-(2,6-diamino-4-oxopyrimidin-5(4H)-ylideneamino)pyrimidin-4(3H)-one formation after 1 day by NMR spectroscopy; conditions: 24 h
[17] = Drug degradation in DMSO assessed as 2,6,8-triaminopyrimido[5,4-g]pteridin-4(3H)-one after 87 days by NMR spectroscopy; conditions: 2088 h
[18] = Drug degradation in alkalised DMSO assessed as 2,6,8-triaminopyrimido[5,4-g]pteridin-4(3H)-one formation after 24 hrs
[19] = Drug degradation in DMSO assessed as 2,6,8-triaminopyrimido[5,4-g]pteridin-4(3H)-one formation at 10 mM incubated over 2 months by UV-Vis spectrophotometry; conditions: 1461 h, 10000 µM
[20] = Drug degradation in DMSO assessed as ammonium cation formation after 2 days by NMR spectroscopy; conditions: 48 h
[21] = Drug degradation in DMSO assessed as 2,6-diamino-5-(2,6-diamino-4-oxopyrimidin-5(4H)-ylideneamino)pyrimidin-4(3H)-one formation after 11 days by UV-Vis spectrophotometry; conditions: 264 h
[22] = Drug degradation in acidified DMSO
[23] = Drug degradation in alkalised DMSO assessed as 2,6-diamino-5-(2,6-diamino-4-oxopyrimidin-5(4H)-ylideneamino)pyrimidin-4(3H)-one formation
[24] = Drug degradation in DMSO assessed as 2,6,8-triaminopyrimido[5,4-g]pteridin-4(3H)-one formation after 11 days by UV-Vis spectrophotometry; conditions: 264 h
[25] = Drug degradation in DMSO assessed as 2,6-diamino-5-(2,6-diamino-4-oxopyrimidin-5(4H)-ylideneamino)pyrimidin-4(3H)-one formation at 10 mM incubated over 2 months by UV-Vis spectrophotometry; conditions: 1461 h, 10000 µM
[26] = Drug degradation in DMSO after 7 days by NMR spectroscopy; conditions: 168 h
[27] = Drug degradation in DMSO assessed as bis-alloxazine and pyrimido[4,5-g]pteridine-2,4,7,9(1H,3H,6H,8H)-tetraone formation after 3 months; conditions: 2191.5 h

Compound: Nc1[nH]c(=O)[nH]c(=O)c1N
- Drug degradation [1]: Active
- Drug degradation [2]: Active

Compound: Nc1ncnc(O)c1N
- Drug degradation [3]: Active
- Drug degradation [2]: Active

Compound: Nc1nc(Cl)c(N)c(Cl)n1
- Drug degradation [4]: Active
- Drug degradation [5]: Active
- Drug degradation [6]: Active
- Drug degradation [2]: Active

Compound: COc1nc(N)nc(OC)c1N
- Drug degradation [7]: Active
- Drug degradation [6]: Active
- Drug degradation [2]: Active

Compound: Nc1nc(N)c(N)c(N)n1
- Drug degradation [8]: Active
- Drug degradation [9]: Active
- Drug degradation [10]: Active
- Drug degradation [2]: Active

Compound: Nc1c[nH]c(=O)[nH]c1=O
- Drug degradation [11]: Active
- Drug degradation [2]: Active
- Drug degradation [12]: Active

Compound: NC1C(=O)NC(=O)NC1=O
- Drug degradation [11]: Active
- Drug degradation [13]: Active
- Drug degradation [2]: Active

Compound: Nc1cc(O)nc(N)n1
- Drug degradation [2]: Not Active

Compound: Nc1ncnc(N)c1N
- Drug degradation [14]: Not Active
- Drug degradation [5]: Not Active

Compound: Nc1c(Cl)ncnc1Cl
- Drug degradation [6]: Not Active

Compound: Nc1nc(S)[nH]c(=O)c1N
- Drug degradation [13]: Active
- Drug degradation [5]: Active
- Drug degradation [2]: Active

Compound: Nc1nc(N)c(N)c(O)n1
- Drug degradation [15]: Active
- Drug degradation [16]: Active
- Drug degradation [17]: Active
- Drug degradation [18]: Active
- Drug degradation [9]: Active
- Drug degradation [19]: Active
- Drug degradation [20]: Active
- Drug degradation [21]: Active
- Drug degradation [22]: Active
- Drug degradation [23]: Active
- Drug degradation [24]: Active
- Drug degradation [25]: Active
- Drug degradation [26]: Active
- Drug degradation [2]: Active

Compound: Nc1c[nH]c(=O)nc1N
- Drug degradation [6]: Active
- Drug degradation [2]: Active
- Drug degradation [27]: Active
